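Method: 48-hour compound exposure of cells in 96-well plates, five concentrations, linear interpolation of endpoints. GI50 = concentration required for 50% inhibition of growth.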 The source made the active and inactive calls. No stated cut-off is given here; in the data, active = GI50 up to about 1.1 µM and inactive = higher.
What was measured:
Experiment in all cases: NCI tumour cell line growth inhibition, 48 h
LXFL 529 = system: LXFL 529
OVCAR-5 = system: OVCAR-5
UO-31 = system: UO-31
COLO 205 = system: COLO 205
ACHN = system: ACHN
SK-MEL-28 = system: SK-MEL-28
NCI-H460 = system: NCI-H460
HOP-62 = system: HOP-62
IGROV-1 = system: IGROV-1
DMS-114 = system: DMS-114
K562 = system: K562
HCT-116 = system: HCT-116
SK-MEL-2 = system: SK-MEL-2
SNB-78 = system: SNB-78
SNB-75 = system: SNB-75
HT-29 = system: HT-29
M19-MEL = system: M19-MEL
Malme-3M = system: Malme-3M
SF-268 = system: SF-268
A498 = system: A498
SNB-19 = system: SNB-19
HOP-92 = system: HOP-92
KM-20L2 = system: KM-20L2
RXF 393 = system: RXF 393
OVCAR-3 = system: OVCAR-3
UACC-62 = system: UACC-62
SK-OV-3 = system: SK-OV-3
KM12 = system: KM12
OVCAR-4 = system: OVCAR-4
SF-295 = system: SF-295
UACC-257 = system: UACC-257
M14 = system: M14
RPMI-8226 = system: RPMI-8226
SF-539 = system: SF-539
U-251 = system: U-251
NCI-H23 = system: NCI-H23
MDA-N = system: MDA-N
BT-549 = system: BT-549
SW-620 = system: SW-620
SN12C = system: SN12C
SR = system: SR
PC-3 = system: PC-3
NCI-H522 = system: NCI-H522
SK-MEL-5 = system: SK-MEL-5
T47D = system: T47D
MDA-MB-231 = system: MDA-MB-231
A549 = system: A549
HCC 2998 = system: HCC 2998
NCI/ADR-RES = system: NCI/ADR-RES
CCRF-CEM = system: CCRF-CEM
MDA-MB-435 = system: MDA-MB-435
NCI-H226 = system: NCI-H226
TK-10 = system: TK-10
786-0 = system: 786-0
LOX IMVI = system: LOX IMVI
CAKI-1 = system: CAKI-1
MCF7 = system: MCF7
HL-60 = system: HL-60
MOLT-4 = system: MOLT-4
DU-145 = system: DU-145
EKVX = system: EKVX
OVCAR-8 = system: OVCAR-8
HCT-15 = system: HCT-15
Hs-578T = system: Hs-578T

Q: How did the GI50 (LXFL 529) turn out when `CCOP(=O)(OCC)/C(C#N)=C/c1cc(O)ccc1O` was run?
A: > 100 µM (inactive)

Q: And the GI50 (OVCAR-5)?
A: > 100 µM (inactive)

Q: And the GI50 (UO-31)?
A: > 100 µM (inactive)

Q: What about the GI50 (COLO 205) of the same compound?
A: > 100 µM (inactive)

Q: What about the GI50 (ACHN) of the same compound?
A: > 100 µM (inactive)

Q: And the GI50 (SK-MEL-28)?
A: > 100 µM (inactive)

Q: And the GI50 (NCI-H460)?
A: > 100 µM (inactive)

Q: And the GI50 (HOP-62)?
A: > 100 µM (inactive)

Q: What about the GI50 (IGROV-1) of the same compound?
A: > 100 µM (inactive)

Q: What about the GI50 (DMS-114) of the same compound?
A: > 100 µM (inactive)

Q: And the GI50 (K562)?
A: > 100 µM (inactive)

Q: What about the GI50 (HCT-116) of the same compound?
A: > 100 µM (inactive)

Q: And the GI50 (SK-MEL-2)?
A: > 100 µM (inactive)

Q: And the GI50 (SNB-78)?
A: > 100 µM (inactive)

Q: What about the GI50 (SNB-75) of the same compound?
A: 79.3 µM (inactive)

Q: And the GI50 (HT-29)?
A: > 100 µM (inactive)

Q: And the GI50 (M19-MEL)?
A: > 100 µM (inactive)

Q: What about the GI50 (Malme-3M) of the same compound?
A: > 100 µM (inactive)

Q: And the GI50 (SF-268)?
A: > 100 µM (inactive)

Q: What about the GI50 (A498) of the same compound?
A: > 100 µM (inactive)

Q: What about the GI50 (SNB-19) of the same compound?
A: > 100 µM (inactive)

Q: What about the GI50 (HOP-92) of the same compound?
A: > 100 µM (inactive)

Q: What about the GI50 (KM-20L2) of the same compound?
A: > 100 µM (inactive)

Q: What about the GI50 (RXF 393) of the same compound?
A: > 100 µM (inactive)

Q: What about the GI50 (OVCAR-3) of the same compound?
A: > 100 µM (inactive)

Q: And the GI50 (UACC-62)?
A: > 100 µM (inactive)

Q: What about the GI50 (SK-OV-3) of the same compound?
A: > 100 µM (inactive)

Q: What about the GI50 (KM12) of the same compound?
A: > 100 µM (inactive)

Q: What about the GI50 (OVCAR-4) of the same compound?
A: > 100 µM (inactive)

Q: What about the GI50 (SF-295) of the same compound?
A: > 100 µM (inactive)

Q: What about the GI50 (UACC-257) of the same compound?
A: > 100 µM (inactive)

Q: And the GI50 (M14)?
A: > 100 µM (inactive)

Q: What about the GI50 (RPMI-8226) of the same compound?
A: > 100 µM (inactive)

Q: And the GI50 (SF-539)?
A: > 100 µM (inactive)

Q: What about the GI50 (U-251) of the same compound?
A: > 100 µM (inactive)

Q: What about the GI50 (NCI-H23) of the same compound?
A: > 100 µM (inactive)

Q: `COc1cc2c(cc1O)CC[C@@H]1C2CC[C@@]2(C)C1CC[C@@H]2O` (stereo not given in full) was tested. Which GI50 (OVCAR-5) did it give?
A: 37 µM (inactive)

Q: And the GI50 (UO-31)?
A: 6.65 µM (inactive)

Q: And the GI50 (MDA-N)?
A: 0.103 µM (active)

Q: What about the GI50 (COLO 205) of the same compound?
A: 36.7 µM (inactive)

Q: And the GI50 (BT-549)?
A: 0.472 µM (active)

Q: What about the GI50 (ACHN) of the same compound?
A: 9.84 µM (inactive)

Q: And the GI50 (SW-620)?
A: 0.635 µM (active)

Q: What about the GI50 (SK-MEL-28) of the same compound?
A: 3.7 µM (inactive)

Q: What about the GI50 (NCI-H460) of the same compound?
A: 1.96 µM (inactive)

Q: What about the GI50 (SN12C) of the same compound?
A: 6.85 µM (inactive)

Q: And the GI50 (HOP-62)?
A: 2.28 µM (inactive)

Q: And the GI50 (SR)?
A: 0.073 µM (active)

Q: What about the GI50 (IGROV-1) of the same compound?
A: 5.51 µM (inactive)

Q: And the GI50 (PC-3)?
A: 6.24 µM (inactive)

Q: What about the GI50 (NCI-H522) of the same compound?
A: 0.482 µM (active)

Q: And the GI50 (SK-MEL-5)?
A: 1.35 µM (inactive)

Q: What about the GI50 (T47D) of the same compound?
A: 4.66 µM (inactive)

Q: And the GI50 (K562)?
A: 0.312 µM (active)

Q: What about the GI50 (HCT-116) of the same compound?
A: 1.19 µM (inactive)

Q: And the GI50 (MDA-MB-231)?
A: 3.4 µM (inactive)

Q: And the GI50 (A549)?
A: 4.48 µM (inactive)

Q: And the GI50 (SK-MEL-2)?
A: 1.32 µM (inactive)

Q: What about the GI50 (HCC 2998) of the same compound?
A: 9.62 µM (inactive)

Q: And the GI50 (SNB-75)?
A: 1.07 µM (active)

Q: And the GI50 (HT-29)?
A: 21 µM (inactive)

Q: What about the GI50 (NCI/ADR-RES) of the same compound?
A: 0.458 µM (active)

Q: What about the GI50 (Malme-3M) of the same compound?
A: 0.771 µM (active)

Q: What about the GI50 (SF-268) of the same compound?
A: 3.43 µM (inactive)

Q: And the GI50 (A498)?
A: 16.7 µM (inactive)

Q: What about the GI50 (CCRF-CEM) of the same compound?
A: 0.689 µM (active)

Q: What about the GI50 (MDA-MB-435) of the same compound?
A: 0.105 µM (active)

Q: What about the GI50 (NCI-H226) of the same compound?
A: 48.5 µM (inactive)

Q: And the GI50 (SNB-19)?
A: 16.3 µM (inactive)

Q: And the GI50 (TK-10)?
A: 14 µM (inactive)

Q: And the GI50 (HOP-92)?
A: 10.7 µM (inactive)

Q: What about the GI50 (786-0) of the same compound?
A: 2.07 µM (inactive)

Q: What about the GI50 (LOX IMVI) of the same compound?
A: 2.89 µM (inactive)

Q: What about the GI50 (CAKI-1) of the same compound?
A: 13.5 µM (inactive)

Q: And the GI50 (RXF 393)?
A: 6.24 µM (inactive)

Q: And the GI50 (MCF7)?
A: 1.6 µM (inactive)

Q: And the GI50 (OVCAR-3)?
A: 0.634 µM (active)

Q: And the GI50 (HL-60)?
A: 0.47 µM (active)

Q: And the GI50 (UACC-62)?
A: 1.21 µM (inactive)

Q: And the GI50 (SK-OV-3)?
A: 3.22 µM (inactive)

Q: What about the GI50 (KM12) of the same compound?
A: 4.43 µM (inactive)

Q: What about the GI50 (OVCAR-4) of the same compound?
A: 29.6 µM (inactive)

Q: What about the GI50 (SF-295) of the same compound?
A: 3.16 µM (inactive)

Q: And the GI50 (UACC-257)?
A: 11.2 µM (inactive)

Q: And the GI50 (MOLT-4)?
A: 0.532 µM (active)

Q: What about the GI50 (M14) of the same compound?
A: 0.91 µM (active)

Q: And the GI50 (RPMI-8226)?
A: 0.57 µM (active)

Q: And the GI50 (SF-539)?
A: 0.807 µM (active)

Q: And the GI50 (DU-145)?
A: 2.46 µM (inactive)

Q: And the GI50 (EKVX)?
A: 6.17 µM (inactive)

Q: What about the GI50 (OVCAR-8) of the same compound?
A: 2 µM (inactive)

Q: What about the GI50 (U-251) of the same compound?
A: 1.16 µM (inactive)

Q: And the GI50 (HCT-15)?
A: 0.566 µM

Q: What about the GI50 (NCI-H23) of the same compound?
A: 2.05 µM (inactive)

Q: And the GI50 (Hs-578T)?
A: 1.14 µM (inactive)
